Results published in patent US4665086A, “Method for minimizing disturbances in circadian rhythms of bodily performance and function” (priority 1983, dated 1987).
Where “and” joins values, the source holds several entries; their conditions need not be identical. Equal entries are not always repeated. Entries after “also recorded” stand apart in the source; their conditions may differ.

What was measured:
[1] = Example 9: absorption and clearance of orally administered melatonin, plasma radioimmunoassay; assay type: in vivo, human
Text: This was two hours after a light breakfast of apple juice, cereal and tea. Blood sampling was continued until 1400 hrs. The blood was immediately centrifuged, and the plasma frozen until assayed for melatonin using a specific radioimmunoassay developed in the inventors' laboratory as a modification of the procedure originally described by D. J. Kennaway et al. (Endocrinology 110, 1766, 1982.) The results are shown in the accompanying FIG. 2.

[2] = tested on: circadian rhythms in humans (jet lag); test: Example 6: Subject C, flight Melbourne-Los Angeles-Washington-London-Vancouver-Melbourne, verbatim account; assay type: in vivo, human; settings: for overall effect on jet-lag (subject's impression, comment): 5 mg capsule on retiring and a second on awaking
Protocol: Subject C Flight from Melbourne→Los Angeles→Washington→London→Vancouver→Melbourne. 15.2.84-27.3.84 The subject, a Professor who had never taken Melatonin before, was given gelatin capsules containing 5 mg Melatonin and instructed to take one capsule on going to bed in the evening (local time) after arrival at their destination, and to take a further capsule if they awoke in the night.

[3] = tested on: free-running circadian activity rhythm of rats; settings: pharmacological doses, only when given at onset of spontaneous activity; cited from earlier work
[4] = tested on: circadian rhythms in humans (jet lag); test: Example 1: Subject A, flight Melbourne-North Carolina-Melbourne, melatonin at local bedtime; assay type: in vivo, human
Text: Subject A was a Professor of Physiology who had never taken melatonin before. |Flight from Melbourne → North Carolina, U.S.A. → Melbourne. |Details of activity schedule, sleeping time, melatonin administration. In this example Subject A used a preparation of crystalline melatonin in a gelatin capsule.

[5] = tested on: circadian rhythms in humans (jet lag, body temperature rhythm); test: Example 4: Subject A, round-the-world flight, melatonin with rectal temperature record (Vitalog PMS8); assay type: in vivo, human
Text: Subject A Flight from Melbourne→Geneva→London→Chapel Hill, N.C.→Melbourne 18.9.83-30.9.83. […] During this experiment use was made of a portable Vitalog PMS8 mini computer to record the temperature of Subject A. The Vitalog PMS8 recorded body temperature at ten minute intervals utilizing a rectal temperature probe. […] A discussion of the temperature record follows. During this flight Subject A wore the Vitalog PMS8 mini computer and rectal probe for the continuous recording of their deep body temperature. The equipment malfunctioned after 4 days due to premature battery failure. From 18.9.83- 23.9.83 Subject A kept a detailed daily log of quality and nature of sleep, modd, and alertness according to a technique developed by NASA. […] The dark, dotted regions represent dark periods. The time scale is for Melbourne time no matter where Subject A is identified by one of the letters A, B, C, D or E. Recordings of dark periods B, C and D have been repeated to give continuity to the record. The black arrows identify the times of administration of melatonin.

depressed patients = settings: cited from earlier work
[6] = tested on: circadian rhythms in humans (jet lag); test: Example 3: Subject A, flight Melbourne-Stockholm-London-Melbourne, melatonin at local bedtime; assay type: in vivo, human; settings: 5 mg oral
Text: |Subject A Flight from Melbourne → Stockholm → London |Detail of activity schedule, sleeping times, melatonin adminsitration.

[7] = tested on: circadian rhythms in humans (jet lag); test: Example 5: Subject B, double-blind trial, Capsule A (melatonin) vs Capsule B (placebo), flight Melbourne-Geneva-Rotterdam-Melbourne; assay type: in vivo, human
Text: Subject B Flight from Melbourne→Geneva→Rotterdam→Melbourne 30.1.84-19.2.84
This was a double-blind trial. The subject, a Clinical Professor who had never taken Melatonin before, was given two bottles labelled A and B containing identical-looking gelatin capsules, and told to take one capsule A on going to bed, and again if awaking in the middle of the night, for the first 4 days after arrival in Geneva. They were told to take one capsule B according to the same schedule after return to Melbourne, and to record the quality of each night's sleep and feelings during the daytime. Capsule A contained 5 mg Melatonin. and capsule B contained a placebo (sucrose). Only after the subject had completed their written report 4 days after returning to Melbourne were they told which pills contained Melatonin and which contained placebo.

[8] = Capsule A = 5 mg Melatonin, Geneva

Compound: COc1ccc2[nH]cc(CCNC(C)=O)c2c1 [melatonin, 5-methoxy-N-acetyltryptamine]
- plasma melatonin concentration at which subjective feelings of drowsiness were experienced ([1]; Subject A, 5 mg oral): exceeded 2 ng/ml
- subjective effects coincident with maximal plasma levels ([1]; Subject A, 5 mg oral): yawning and sleepiness
- Tmax ([1]; human, plasma, po, 5 mg, Subject A, 5 mg oral in gelatin capsule, read-out: time after ingestion to peak plasma concentration (converted)): 1.1 h
- plasma values 260 minutes after ingestion relative to normal nocturnal values of around 100 pg/ml plasma ([1]; in vivo, po): 10 times higher
- overall effect on jet-lag (subject's impression, comment) [2]: prevented the usual, unpleasant symptoms associated with rapid changes in time zones
- overall effect on jet-lag (subject's impression, comment) ([2]; listed as Melatonin): great improvement over my normal experience of jet-lag
- feeling / adjustment the day after melatonin ([2]; Los Angeles, London (5 h change), Vancouver (8 h change)): felt very close to normal; also recorded: feeling normal and appeared to be fully adjusted to the London time; also recorded: felt a little unusual and later, around 4.00 pm felt very sleepy
- sleep after taking melatonin ([2]; first night in Los Angeles): sleep that night appeared normal
- entrainment of free-running circadian activity rhythm [3]: could entrain the free-running circadian activity rhythm of rats
- symptoms of jet lag / fatigue (comment) ([4]; 2.5-5.0 mg oral melatonin at bedtime and on waking): no symptoms of jet lag whatsoever; also recorded: never felt any fatigue whatsoever
- feeling on awakening after melatonin sleep (diary) ([4]; 2.5 or 5.0 mg oral per dose): Felt fresh, relaxed, not jet-lagged; also recorded: felt fresh, relaxed
- sleep after taking melatonin (diary) ([4]; 2.5 or 5.0 mg oral per dose): fell asleep again
- time to fall asleep again after taking additional melatonin ([4]; awoke during the night in North Carolina, oral crystalline melatonin in gelatin capsule): ≤ 15 min
- feeling on awakening / during day after melatonin sleep (diary) ([5]; 5 mg oral, listed as Melatonin): feeling excellent; also recorded: feeling drowsy, slight headache; also recorded: feeling fine; also recorded: feeling good; also recorded: Felt fine; also recorded: tired and sleepy and cold; also recorded: Felt very sleepy, but this soon passed
- sleep after taking melatonin (diary) ([5]; 5 mg oral, listed as Melatonin): Fell asleep at once; also recorded: Did not fall asleep; also recorded: half an hour; also recorded: slept soundly
- time to fall asleep after taking melatonin (diary) ([5]; 5 mg oral, listed as Melatonin): 30 min and 25 min
- subjective symptoms of jet-lag (comment) ([5]; 5 mg oral, round-the-world flight in Westerly direction): no subjective symptoms of jet-lag
- time of maximal body temperatures ([5]; after arrival in Geneva, rectal probe): around midnight Melbourne time
- re-entrainment of body temperature rhythm ([5]; rectal temperature, after arrival in Geneva, FIG. 1): re-entrained extremely rapidly to Geneva time
- time of lowest body temperatures ([5]; third and fourth sleep periods in Geneva, rectal probe): around mid-day Melbourne time
- effect on symptoms of depressed patients (depressed patients): exacerbation of symptoms including florid psychotic episodes
- sleep after taking melatonin (diary, comment) [6]: sleep well at an inappropriate time of the day
- feeling jet-lagged (comment) ([6]; 8-9 hour time change): At no time during the day either in Sweden or on their return to Melbourne did they feel jet-lagged
- feeling on awakening / during day after melatonin sleep (diary) ([6]; listed as Melatonin): Feeling fine; also recorded: Felt good; also recorded: feeling good; also recorded: Felt fine
- sleep after taking melatonin (diary, comment) ([6]; listed as Melatonin): fell asleep again; also recorded: good sleep; also recorded: slept well; also recorded: sleep until 2330 hrs; also recorded: asleep 2400 hrs
- time to fall asleep after taking melatonin (diary) ([6]; return flight after Singapore): 3/4
- time after entering new time zone until able to sleep at period coinciding with early morning in zone of departure [7]: ≤ 24 h
- subject's blinded conclusion on effect of capsule ([7]; 5 mg melatonin per capsule, first 4 days in Geneva, double-blind): making them less tired and more alert in the meetings at WHO in Geneva
- feeling during day (diary) [7, 8]: felt tired in morning
- sleep after taking capsule (diary) [7, 8]: fell asleep again; also recorded: slept well; also recorded: sleep well
